# US20250387481A1, “PRE-TREATED T CELLS FOR USE AS A MEDICAMENT” (STICHTING HET NEDERLANDS KANKER INSTITUUT-ANTONI VAN …, priority 2022, published 2025)
# Experiments:
# Type in all cases: cell-based, mouse
# [1] = tested on: KB1P organoids; assay: Co-culture of pre-treated splenic T cells with KB1P organoids (MTT, cleaved-caspase 3); details: T cells that cannot mature nor produce a TCR response
# [2] = tested on: MMTV-PyMT organoids expressing OVA; assay: Co-culture of OT I T cells with MMTV-PyMT organoids expressing OVA (cleaved-caspase 3); details: OT I T cells pre-treated with docetaxel vs control
# Description: Experiments were approved by the Animal Welfare Committee of the Netherlands Cancer Institute and were performed in accordance with national guidelines. Mice were housed in individually ventilated cage (IVC) systems under specific pathogen-free conditions and received chow and water ad libitum. FVB/NRj females (Janvier), C57BL/6-Tg (TcraTcrb) 1100Mjb/J females (OT I mice, Jackson laboratory), and ROSA26mTmG FVB females (NKI) were used at 8-20 weeks of age at the time of fat pad injection of tumor organoids or spleen isolation.
# (§1) For T cells isolated from mouse mammary tumors, T cells were directly co-cultured with tumor organoids after FACS isolation. For T cells isolated from the spleen, T cells were treated for 72 h with PBS or with docetaxel (docetaxel 10 nmol/L), in the presence or absence of an LCKi (10 μmol/L, Merck Millipore, Cat. No. 213743-31-8). To evaluate the docetaxel-specificity of our observations, T cells were treated with paclitaxel 10 nmol/L or carboplatin 50 μmol/L for 72 h. Subsequently, T cells were collected and washed 3 times in PBS to remove residual chemotherapy or LCKi.
# Organoids were fixed in 4% paraformaldehyde in PBS for 20 min at room temperature, followed by permeabilization in 0.2% TritonX-100 in PBS for 15 min at room temperature. […]
# [3] = tested on: MMTV-PyMT organoids; assay: Co-culture of pre-treated splenic T cells with MMTV-PyMT organoids (MTT, cleaved-caspase 3); details: CD4 or CD8 T cells pre-treated with docetaxel
# Description: Preparation of T cells: T cells isolated from mouse spleens or from mouse mammary tumors were cultured in Roswell Park Memorial Institute (RPMI) 1640 Medium (Thermo Fisher Scientific, Cat. No. 21875034) containing FBS (10%, Thermo Fisher Scientific, Cat. No. A4766801), Penicillin/streptomycin (10,000 U/ml; Thermo Fisher Scientific, Cat. No. 15140-122), IL2 (Thermo Fisher Scientific, Cat. No. PMC0025), β-mercaptoethanol (50 μmol/L) and Ultraglutamine (2 mmol/L, Lonza, Cat. No. BE17-605E/U1). T cells were kept in 20% O2, 5% CO2 and at 37 degrees Celsius
# In order to assess the direct effects of docetaxel on T cell activation for T cells isolated from the spleen, T cells were cultured in the absence of CD3 and CD28 antibodies.
# as §1, with “Subsequently, T cells were collected and washed 3 times in PBS to remove residual chemotherapy or LCKi.” left out
# Following co-culture, medium was removed, and cultures were washed in PBS to remove T cells. […] Plates were read with a 565 nm wavelength. […]
compound,measurement,setting,value
CC(=O)O[C@@]12CO[C@@H]1C[C@H](O)[C@@]1(C)C(=O)[C@H](O)C3=C(C)[C@@H](OC(=O)[C@H](O)[C@@H](NC(=O)OC(C)(C)C)c4ccccc4)C[C@@](O)([C@@H](OC(=O)c4ccccc4)[C@H]21)C3(C)C [docetaxel],T cell-mediated killing by T cells from NOD-SCID IL2rg-/- mice,[1],triggered T cell-mediated killing
same,cytotoxicity of OT I T cells (apoptosis in OVA+ organoids),[2],further enhanced
same,T cell-mediated killing in presence or absence of LCKi,[3],TCR-independent increase of T cell-mediated killing
